Data published in the CheMixHub viscosity set.

Assay: xn = mol fraction of the nth substance listed

CCOCCO + CC(C)CC(C)(C)C
viscosity [mPa·s], 101.33 kPa
Conditions | x1 = 0.0991 | x1 = 0.1991 | x1 = 0.2975 | x1 = 0.4347 | x1 = 0.4972 | x1 = 0.6001 | x1 = 0.6976 | x1 = 0.7979 | x1 = 0.8986
298.15 K | 0.494 | 0.536 | 0.595 | 0.692 | 0.753 | 0.862 | 1.006 | 1.179 | 1.436
303.15 K | 0.466 | 0.5 | 0.552 | 0.648 | 0.694 | 0.797 | 0.913 | 1.086 | 1.292
308.15 K | 0.439 | 0.475 | 0.517 | 0.601 | 0.642 | 0.738 | 0.839 | 0.993 | 1.167
313.15 K | 0.415 | 0.445 | 0.483 | 0.56 | 0.597 | 0.677 | 0.767 | 0.901 | 1.066

Oc1ccc(Cl)cc1 + CCO
Conditions | viscosity [mPa·s]
298.15 K, 101 kPa, x1 = 0.5 | 1.454

CCOCCO + CCCCCCCCO
298.15 K, 101 kPa
Conditions | viscosity [mPa·s]
x1 = 0.1384 | 6.062
x1 = 0.2654 | 5.061
x1 = 0.3825 | 4.268
x1 = 0.4907 | 3.649
x1 = 0.591 | 3.172
x1 = 0.6843 | 2.805
x1 = 0.7713 | 2.504
x1 = 0.8525 | 2.266
x1 = 0.9286 | 2.078

CNC(C)=O + CS(C)=O
313 K, 101 kPa
Conditions | viscosity [mPa·s]
x2 = 0.0743 | 2.725
x2 = 0.177 | 2.42
x2 = 0.2759 | 2.198
x2 = 0.3801 | 2.01
x2 = 0.4764 | 1.888
x2 = 0.5737 | 1.78
x2 = 0.6725 | 1.696
x2 = 0.7647 | 1.626
x2 = 0.8734 | 1.567
x2 = 0.9723 | 1.522

CC(CC(C)(C)C)CP(=O)(O)CC(C)CC(C)(C)C (stereo unspecified) + Cc1ccccc1
298.15 K, 101 kPa
Conditions | viscosity [mPa·s]
x1 = 0.0069 | 0.589
x1 = 0.0129 | 0.633
x1 = 0.0143 | 0.65
x2 = 0.1117 | 88.23
x2 = 0.2037 | 66.68
x2 = 0.3198 | 43.9
x2 = 0.4972 | 20.43
x2 = 0.6533 | 9.197
x2 = 0.7579 | 4.844
x2 = 0.7674 | 4.562
x2 = 0.8571 | 2.218
x2 = 0.8649 | 2.075
x2 = 0.9241 | 1.252
x2 = 0.9269 | 1.219
x2 = 0.9692 | 0.778
